Experimental data as given in patent US20240383870A1, “HETEROCYCLIC ALDEHYDE TRAPPING COMPOUNDS AND USES THEREOF” (Aldeyra Therapeutics, Inc., priority 2021, published 2024).

Tests used:
[1] = test system: MIP2(CXCL2); experiment: Acute LPS-induced sepsis in C57BL/6 mice: MIP2(CXCL2) cytokine detection assay; assay type: in vivo; settings: 200 mpk PO; LPS-challenged mice, plasma at 6.5 h; unpaired t-test vs vehicle
Source text: FIG. 27 is a graph showing the results of a MIP2(CXCL2) cytokine detection assay in samples collected from mouse subjects after administration of compounds of the present disclosure.
(§1) The primary objective of this study was to collect plasma samples of lipopolysaccharide (LPS) challenged C57BL/6 mice after dose of test compounds to provide a cytokine profile as impacted by prophylactic treatments. This study models acute sepsis, which is a systemic inflammatory syndrome initiated by Gram-negative and Gram-positive bacteria and fungi which infect the lungs, abdomen, bloodstream, and renal or genitourinary tracts. Sepsis patients ultimately die of multiorgan failure which is caused by extensive tissue hypo-oxygenation due to ongoing microvascular leakage, disseminated intravascular coagulation, compromised energy production, and metabolic alterations. Sepsis is characterized by an early systemic inflammatory response phase featuring symptoms, such as tachycardia, fever, hyperventilation, and activation of the complement and coagulation cascades. However, it is now appreciated that a compensatory anti-inflammatory response phase follows, characterized by neuroendocrine-mediated immunosuppression. Since these processes are the result of interaction between cells of inflammation and organs, investigation of the treatment of this syndrome requires the use of intact animal models. The use of ten mice per group allows useful statistical modelling of the results.
(§2) For the data shown in Table 2A, 103 mice (female, 18-22 gram, C57BL/6) were purchased from ENVIGO. The mice were housed in 20 cages of 5 mice per cage with 1 cage of 3 mice as extra. The cages had filter tops and autoclaved bedding, and the animals were placed in quarantine with daily inspection. The treatment groups are detailed in Table 2A below. 10 mice were included in each group. […] MC=methyl cellulose.
(§3) For the data shown in Table 2B, 185 mice (female, 18-22 gram, C57BL/6) were purchased from ENVIGO. The mice were housed in 37 cages of 5 mice per cage. The cages had filter tops and autoclaved bedding, and the animals were placed in quarantine with daily inspection. The treatment groups are detailed in Table 2B below. 10 mice were included in each group. The mice were dosed by oral gavage (P0) at 10 ml/kg as per the table below. MC=methyl cellulose.
(§4) At T=0 h, the mice were dosed with one of the test compounds as described in the above table.
(§5) At T=0.5 h, the mice were injected IP with 1.5 mg/kg […] (Sigma).
(§6) At T=6.5 h, all mice were anesthetized and exsanguinated into pre-chilled EDTA-treated tubes. […]
(§7) A 32-plex cytokine panel was obtained from Eve Technologies. Each cytokine was assessed based against a 7 point curve range in duplicate. […]

[2] = test system: KC; experiment: Acute LPS-induced sepsis in C57BL/6 mice: KC cytokine detection assay; assay type: in vivo; settings: 200 mpk PO; LPS-challenged mice, plasma at 6.5 h; unpaired t-test vs vehicle
Source text: FIG. 20 is a graph showing the results of a KC cytokine detection assay in samples collected from mouse subjects after administration of compounds of the present disclosure.
as §1
(§8) For the data shown in Table 2A, 103 mice (female, 18-22 gram, C57BL/6) were purchased from ENVIGO. The mice were housed in 20 cages of 5 mice per cage with 1 cage of 3 mice as extra. The cages had filter tops and autoclaved bedding, and the animals were placed in quarantine with daily inspection. The treatment groups are detailed in Table 2A below. 10 mice were included in each group. The mice were dosed by oral gavage (PO) at 10 ml/kg as per the table below. MC=methyl cellulose.
as §3, §4, §5
(§9) At T=6.5 h, all mice were anesthetized and exsanguinated into pre-chilled EDTA-treated tubes. The blood was processed to plasma which was stored in labeled 0.5 polypropylene snap-cap tubes (0.5 mL Eppendorf Safe-Lock Tubes (Fisher Scientific) at −80° C.
(§10) Preparation of vehicle: 1.0 gram of methyl cellulose (Sigma) was dissolved in 200 mL of water (USP purified) to make a solution of 0.5% methyl cellulose in water. Preparation of LPS solution: 6 mg of LPS (from Escherichia Coli 055:B5, Cat #L2880, Sigma Lot #057m4013) was dissolved in 20 ml of saline to give a LPS solution of 0.3 mg/ml. All mice were injected with 5 ml/kg (1.5 mg/kg) at the scheduled time by intraperitoneal injection.
A 32-plex cytokine panel was obtained from Eve Technologies. Each cytokine was assessed based against a 7 point curve range in duplicate. The average of the two replicate analyses was used for statistics. Unpaired t-tests were performed using Excel™ contrasting vehicle against each treatment group. One star indicates P<0.05. Two stars indicates P<0.01. Three stars indicates P<0.001. Four stars indicates P<0.0001. Most, but not all, statistically significant results are indicated with star(s).

[3] = test system: leukemia inhibitory factor (LIF); experiment: Acute LPS-induced sepsis in C57BL/6 mice: leukemia inhibitory factor (LIF) cytokine detection assay; assay type: in vivo; settings: 200 mpk PO; LPS-challenged mice, plasma at 6.5 h; unpaired t-test vs vehicle
Source text: FIG. 21 is a graph showing the results of a leukemia inhibitory factor (LIF) cytokine detection assay in samples collected from mouse subjects after administration of compounds of the present disclosure. LIF is an interleukin 6 class cytokine that affects cell growth by inhibiting differentiation.
as §1, §8, §3, §4, §5, §9, §10, §7

[4] = test system: IL-6; experiment: Acute LPS-induced sepsis in C57BL/6 mice: IL-6 cytokine detection assay; assay type: in vivo; settings: 200 mpk PO; LPS-challenged mice, plasma at 6.5 h; unpaired t-test vs vehicle
Source text: FIG. 11 is a graph showing the results of an IL-6 cytokine detection assay in samples collected from mouse subjects after administration of compounds of the present disclosure.
as §1, §8, §3, §4, §5, §6, §7

[5] = test system: IL-2; experiment: Acute LPS-induced sepsis in C57BL/6 mice: IL-2 cytokine detection assay; assay type: in vivo; settings: 200 mpk PO; LPS-challenged mice, plasma at 6.5 h; unpaired t-test vs vehicle
Source text: FIG. 7 is a graph showing the results of an IL-2 cytokine detection assay in samples collected from mouse subjects after administration of compounds of the present disclosure.
as §1, with “Since these processes are the result of interaction between cells of inflammation and organs, investigation of the treatment of this syndrome requires the use of intact animal models. The use of ten mice per group allows useful statistical modelling of the results.” left out
as §7

[6] = test system: IL-12(p70); experiment: Acute LPS-induced sepsis in C57BL/6 mice: IL-12(p70) cytokine detection assay; assay type: in vivo; settings: 200 mpk PO; LPS-challenged mice, plasma at 6.5 h; unpaired t-test vs vehicle
Source text: FIG. 16 is a graph showing the results of an IL-12(p70) cytokine detection assay in samples collected from mouse subjects after administration of compounds of the present disclosure.
as §1, §2, §3, §4, §5, §9, §10
A 32-plex cytokine panel was obtained from Eve Technologies. Each cytokine was assessed based against a 7 point curve range in duplicate. The average of the two replicate analyses was used for statistics. Unpaired t-tests were performed using Excel™ contrasting vehicle against each treatment group. One star indicates P<0.05. […]

[7] = 4-HNE trapping experiment (aldehyde adduct formation, Example 6); settings: 4-HNE 1.5 eq; 20% Captisol in phosphate buffer pH 7.2; 24-h time period; LCMS
Protocol: Each of compounds ADX-102, I-32, I-8, I-29, and I-31 ([…]) was tested for reactivity using 4-hydroxynonenal (4-HNE) (1.5 eq) as a model aldehyde. ADX-102 is also known as Reproxalap. Each compound was dissolved in a 20% solution of Captisol in phosphate buffer (1 mL, pH=7.2). Then, 4-HNE in ethanol (10 mg/mL solution) was added to the solution. The ensuing reaction was monitored by LCMS analysis. The relative ratio of experimental compound/4-HNE adduct to final composition was plotted against time to provide an indication of reaction rate and level of reaction completeness.

[8] = test system: IL-9; experiment: Acute LPS-induced sepsis in C57BL/6 mice: IL-9 cytokine detection assay; assay type: in vivo; settings: 200 mpk PO; LPS-challenged mice, plasma at 6.5 h; unpaired t-test vs vehicle
Source text: FIG. 13 is a graph showing the results of an IL-9 cytokine detection assay in samples collected from mouse subjects after administration of compounds of the present disclosure.
as §1
as §8, with “cellulose. […]” for “cellulose.”
as §7

With `CC(C)(O)c1cc2c(cc1N)OCO2` [Compound I-29] the “MIP-2: significant cytokine change vs. vehicle” value [1] was “* (One star indicates P<0.05)”, the “KC: significant cytokine change vs. vehicle” value [2] was “* (One star indicates P<0.05)” and the “LIF: significant cytokine change vs. vehicle” value [3] was “**** (Four stars indicates P<0.0001)”. The “IL-6: significant cytokine change vs. vehicle” value [4] was “** (Two stars indicates P<0.01)”, the “IL-2: significant cytokine change vs. vehicle” value [5] was “** (Two stars indicates P<0.01)” and the “IL-12 (p70): significant cytokine change vs. vehicle” value [6] was “**** (Four stars indicates P<0.0001)”. The “4-HNE binding (rate of formation of aldehyde adduct)” value [7] was “the best binding” and the “IL-9: significant cytokine change vs. vehicle” value [8] was “*** (Three stars indicates P<0.001)”.
